According to the NIST ThermoML archive (doi:10.1016/j.tca.2015.06.017):

Assay: xn = mol fraction of the nth substance listed
Settings: Liquid, Vibrating tube method

CC(C)(C)Cl [2-chloro-2-methylpropane] + CCCCCCC
mass density [kg/m3]
Settings | 303.15 K | 313.15 K
100 kPa, x2 = 0.0554 | 818.78 | 806.66
100 kPa, x2 = 0.1017 | 809.14 | 797.28
100 kPa, x2 = 0.2004 | 789.72 | 778.36
100 kPa, x2 = 0.3016 | 771.27 | 760.35
100 kPa, x2 = 0.4097 | 753.07 | 742.58
100 kPa, x2 = 0.498 | 739.29 | 729.11
100 kPa, x2 = 0.5983 | 724.71 | 714.88
100 kPa, x2 = 0.7017 | 710.79 | 701.3
100 kPa, x2 = 0.7995 | 698.55 | 689.36
100 kPa, x2 = 0.9032 | 686.4 | 677.52
100 kPa, x2 = 0.9482 | 681.35 | 672.6
2000 kPa, x2 = 0.0554 | 821.47 | 809.52
2000 kPa, x2 = 0.1017 | 811.82 | 800.05
2000 kPa, x2 = 0.2004 | 792.22 | 781
2000 kPa, x2 = 0.3016 | 773.66 | 763.03
2000 kPa, x2 = 0.4097 | 755.51 | 745.07
2000 kPa, x2 = 0.498 | 741.69 | 731.68
2000 kPa, x2 = 0.5983 | 727.08 | 717.4
2000 kPa, x2 = 0.7017 | 713.01 | 703.64
2000 kPa, x2 = 0.7995 | 700.74 | 691.69
2000 kPa, x2 = 0.9032 | 688.51 | 679.76
2000 kPa, x2 = 0.9482 | 683.42 | 674.8
5000 kPa, x2 = 0.0554 | 825.59 | 813.98
5000 kPa, x2 = 0.1017 | 815.8 | 804.42
5000 kPa, x2 = 0.2004 | 796.16 | 785.28
5000 kPa, x2 = 0.3016 | 777.4 | 767.03
5000 kPa, x2 = 0.4097 | 759.02 | 749.04
5000 kPa, x2 = 0.498 | 745.08 | 735.25
5000 kPa, x2 = 0.5983 | 730.47 | 720.98
5000 kPa, x2 = 0.7017 | 716.37 | 707.1
5000 kPa, x2 = 0.7995 | 703.86 | 695.02
5000 kPa, x2 = 0.9032 | 691.56 | 682.92
5000 kPa, x2 = 0.9482 | 686.48 | 677.95
7000 kPa, x2 = 0.0554 | 828.15 | 816.75
7000 kPa, x2 = 0.1017 | 818.38 | 807.19
7000 kPa, x2 = 0.2004 | 798.56 | 787.92
7000 kPa, x2 = 0.3016 | 779.88 | 769.57
7000 kPa, x2 = 0.4097 | 761.39 | 751.4
7000 kPa, x2 = 0.498 | 747.28 | 737.68
7000 kPa, x2 = 0.5983 | 732.58 | 723.34
7000 kPa, x2 = 0.7017 | 718.4 | 709.4
7000 kPa, x2 = 0.7995 | 705.86 | 697.26
7000 kPa, x2 = 0.9032 | 693.5 | 685.15
7000 kPa, x2 = 0.9482 | 688.38 | 680.11
10000 kPa, x2 = 0.0554 | 832 | 820.74
10000 kPa, x2 = 0.1017 | 822.04 | 811.13
10000 kPa, x2 = 0.2004 | 802.32 | 791.72
10000 kPa, x2 = 0.3016 | 783.29 | 773.41
10000 kPa, x2 = 0.4097 | 764.7 | 754.97
10000 kPa, x2 = 0.498 | 750.6 | 741.18
10000 kPa, x2 = 0.5983 | 735.66 | 726.57
10000 kPa, x2 = 0.7017 | 721.43 | 712.75
10000 kPa, x2 = 0.7995 | 708.91 | 700.32
10000 kPa, x2 = 0.9032 | 696.4 | 688.14
10000 kPa, x2 = 0.9482 | 691.28 | 683.1
20000 kPa, x2 = 0.0554 | 843.57 | 833.07
20000 kPa, x2 = 0.1017 | 833.51 | 823.38
20000 kPa, x2 = 0.2004 | 813.29 | 803.53
20000 kPa, x2 = 0.3016 | 793.94 | 784.77
20000 kPa, x2 = 0.4097 | 774.96 | 766.04
20000 kPa, x2 = 0.498 | 760.6 | –
20000 kPa, x2 = 0.5983 | 745.27 | –
20000 kPa, x2 = 0.7017 | 730.77 | –
20000 kPa, x2 = 0.7995 | 717.92 | –
20000 kPa, x2 = 0.9032 | 705.2 | –
20000 kPa, x2 = 0.9482 | 699.94 | –
30000 kPa, x2 = 0.0554 | 853.99 | –
30000 kPa, x2 = 0.1017 | 843.73 | –
30000 kPa, x2 = 0.2004 | 823.05 | –
30000 kPa, x2 = 0.3016 | 803.47 | –
30000 kPa, x2 = 0.4097 | 784.21 | –
30000 kPa, x2 = 0.498 | 769.56 | –
30000 kPa, x2 = 0.5983 | 753.98 | –
30000 kPa, x2 = 0.7017 | 739.18 | –
30000 kPa, x2 = 0.7995 | 726.07 | –
30000 kPa, x2 = 0.9032 | 713.06 | –
30000 kPa, x2 = 0.9482 | 707.83 | –
40000 kPa, x2 = 0.0554 | 863.35 | –
40000 kPa, x2 = 0.1017 | 852.88 | –
40000 kPa, x2 = 0.2004 | 832.1 | –
40000 kPa, x2 = 0.3016 | 812.13 | –
40000 kPa, x2 = 0.4097 | 792.62 | –
40000 kPa, x2 = 0.498 | 777.76 | –
40000 kPa, x2 = 0.5983 | 761.89 | –
40000 kPa, x2 = 0.7017 | 746.9 | –
40000 kPa, x2 = 0.7995 | 733.47 | –
40000 kPa, x2 = 0.9032 | 720.32 | –
40000 kPa, x2 = 0.9482 | 714.92 | –
50000 kPa, x2 = 0.0554 | 871.81 | –
50000 kPa, x2 = 0.1017 | 861.28 | –
50000 kPa, x2 = 0.2004 | 840.18 | –
50000 kPa, x2 = 0.3016 | 820.14 | –
50000 kPa, x2 = 0.4097 | 800.42 | –
50000 kPa, x2 = 0.498 | 785.33 | –
50000 kPa, x2 = 0.5983 | 769.3 | –
50000 kPa, x2 = 0.7017 | 753.99 | –
50000 kPa, x2 = 0.7995 | 740.47 | –
50000 kPa, x2 = 0.9032 | 727.09 | –
50000 kPa, x2 = 0.9482 | 721.65 | –
60000 kPa, x2 = 0.0554 | 879.84 | –
60000 kPa, x2 = 0.1017 | 869.24 | –
60000 kPa, x2 = 0.2004 | 847.92 | –
60000 kPa, x2 = 0.3016 | 827.68 | –
60000 kPa, x2 = 0.4097 | 807.57 | –
60000 kPa, x2 = 0.498 | 792.31 | –
60000 kPa, x2 = 0.5983 | 776.11 | –
60000 kPa, x2 = 0.7017 | 760.58 | –
60000 kPa, x2 = 0.7995 | 746.99 | –
60000 kPa, x2 = 0.9032 | 733.41 | –
60000 kPa, x2 = 0.9482 | 727.85 | –
65000 kPa, x2 = 0.0554 | 883.64 | –
65000 kPa, x2 = 0.1017 | 872.96 | –
65000 kPa, x2 = 0.2004 | 851.56 | –
65000 kPa, x2 = 0.3016 | 831.16 | –
65000 kPa, x2 = 0.4097 | 810.96 | –
65000 kPa, x2 = 0.498 | 795.68 | –
65000 kPa, x2 = 0.5983 | 779.38 | –
65000 kPa, x2 = 0.7017 | 763.77 | –
65000 kPa, x2 = 0.7995 | 749.98 | –
65000 kPa, x2 = 0.9032 | 736.38 | –
65000 kPa, x2 = 0.9482 | 730.82 | –
